Test results: patent publication US20050197350A1, “Novel quinoline, tetrahydroquinazoline, and pyrimidine derivatives and methods of treatment related to the use thereof” (TAISHO PHARMACEUTICAL CO., LTD., priority 2003, published 2005)

system: MCH receptors; test: MCH receptor activity class (method not given); conditions: class by percent of control at 10^-7 M or IC50

| SMILES | class |
| --- | --- |
| CN(C)c1nc(N[C@H]2CC[C@@H](CNC(=O)Nc3c(Cl)cccc3Cl)CC2)nc2c1CCCC2 [compound 2491, N-(2,6-dichlorophenyl)-N′-[(cis-4-{[4-(dimethylamino)-5,6,7,8-tetrahydroquinazolin-2-yl]amino}cyclohexyl)methyl]urea] | 1 (Class 1: The value of percent of control at 10^−7 M was less than 40% or the value of IC50 was less than 50 nM.) |
| COc1ccc(C)cc1NC(=O)NC[C@H]1CC[C@@H](Nc2nc3c(c(N(C)C)n2)CCCC3)CC1 [compound 2492] | 3 (Class 3 The value of percent of control at 10^−7 M was more than 60% or the value of IC50 was more than 200 nM.) |
| Cc1cccc([N+](=O)[O-])c1NC(=O)NC[C@H]1CC[C@@H](Nc2nc3c(c(N(C)C)n2)CCCC3)CC1 [compound 2493] | 3 (Class 3 The value of percent of control at 10^−7 M was more than 60% or the value of IC50 was more than 200 nM.) |
| CN(C)c1nc(N[C@H]2CC[C@@H](CNC(=O)Nc3ccc(F)c(F)c3)CC2)nc2c1CCCC2 [compound 2494] | 3 (Class 3 The value of percent of control at 10^−7 M was more than 60% or the value of IC50 was more than 200 nM.) |
| CN(C)c1nc(N[C@H]2CC[C@@H](CNC(=O)Nc3cc(F)cc(F)c3)CC2)nc2c1CCCC2 [compound 2495] | 3 (Class 3 The value of percent of control at 10^−7 M was more than 60% or the value of IC50 was more than 200 nM.) |
| CN(C)c1nc(N[C@H]2CC[C@@H](CNC(=O)Nc3ccc(F)c(Cl)c3)CC2)nc2c1CCCC2 [compound 2496] | 3 (Class 3 The value of percent of control at 10^−7 M was more than 60% or the value of IC50 was more than 200 nM.) |

same assay, conditions: class by percent of control at 10^−7 M or IC50

| SMILES | class |
| --- | --- |
| Cc1cnc(N[C@H]2CC[C@@H](CNC(=O)c3ccccc3)CC2)nc1N(C)C [compound 2690, N-[(cis-4-{[4-(dimethylamino)-5-methylpyrimidin-2-yl]amino}cyclohexyl)methyl]benzamide] | 3 (Class 3 The value of percent of control at 10^−7 M was more than 60% or the value of IC50 was more than 200 nM.) |
| Cc1ccc(C(=O)NC[C@H]2CC[C@@H](Nc3ncc(C)c(N(C)C)n3)CC2)cc1 [compound 2691] | 3 (Class 3 The value of percent of control at 10^−7 M was more than 60% or the value of IC50 was more than 200 nM.) |
| Cc1cnc(N[C@H]2CC[C@@H](CNC(=O)c3ccc(F)c(F)c3)CC2)nc1N(C)C [compound 2692, N-[(cis-4-{[4-(dimethylamino)-5-methylpyrimidin-2-yl]amino}cyclohexyl)methyl]-3,4-difluorobenzamide] | 2 (Class 2: The value of percent of control at 10^−7 M was from 40% to 60% or the value of IC′50 was from 50 nM to 200 nM.) |
| COc1ccc(C(=O)NC[C@H]2CC[C@@H](Nc3ncc(C)c(N(C)C)n3)CC2)cc1 [compound 2693] | 3 (Class 3 The value of percent of control at 10^−7 M was more than 60% or the value of IC50 was more than 200 nM.) |
| COc1cc(OC)cc(C(=O)NC[C@H]2CC[C@@H](Nc3ncc(C)c(N(C)C)n3)CC2)c1 [compound 2694, N-[(cis-4-{[4-(dimethylamino)-5-methylpyrimidin-2-yl]amino}cyclohexyl)methyl]-3,5-dimethoxybenzamide] | 1 (Class 1: The value of percent of control at 10^−7 M was less than 40% or the value of IC50 was less than 50 nM.) |
| Cc1ccc(C(=O)NC[C@H]2CC[C@@H](Nc3ncc(C)c(N(C)C)n3)CC2)cc1F [compound 2695, N-[(cis-4-{[4-(dimethylamino)-5-methylpyrimidin-2-yl]amino}cyclohexyl)methyl]-3-fluoro-4-methylbenzamide] | 2 (Class 2: The value of percent of control at 10^−7 M was from 40% to 60% or the value of IC′50 was from 50 nM to 200 nM.) |
| Cc1cc(C(=O)NC[C@H]2CC[C@@H](Nc3ncc(C)c(N(C)C)n3)CC2)ccc1F [compound 2696] | 2 (Class 2: The value of percent of control at 10^−7 M was from 40% to 60% or the value of IC′50 was from 50 nM to 200 nM.) |
